Results taken from US11472845B2, “Antitumor peptide and use thereof” (TOAGOSEI CO., LTD., priority 2019, dated 2022).
Read-outs that look alike come from different tables or passages of the source. Ends that are not written are not given here.

Tested on: human gastric cancer cell lines (FU97)
Format: cell-based
Settings: for Cell viability (%) of test cells: human, 48 h
Procedure: The antitumor activity of Sample 1 synthesized in the above Test Example 1 with respect to human-derived cultured tumor cells was evaluated. Currently commercially available human gastric cancer cell lines (FU97), human alveolar basal epithelial adenocarcinoma cell lines (A549), human breast cancer cell lines (MDA-MB-231), and human melanoma cell lines (A375) were prepared as test tumor cells. In addition, normal human mammary epithelial cell culture lines (MCF-12F) were prepared for comparison. A DMEM culture medium including 10 μg/mL of insulin, 50 unit/mL of penicillin, 50 μg/mL of streptomycin, and 10% fetal bovine serum (FBS) (product, commercially available from Wako Pure Chemical Industries, Ltd.) The above five types of cell lines were cultured in respective designated culture solutions. The cell lines were cultured so that the number of cells per well in a 96-hole (well) plate was about 5×10^3. Here, an amount of the culture solution per well was 100 μL. The 96-well plate was then placed in a CO2 incubator. Then, pre-incubation was performed under conditions of 37° C. and 5% CO2 for about 1 day (about 23 hours). Then, regarding the culture solution for the peptide addition area, culture solutions containing Sample 1 for each concentration were prepared so that the concentration of Sample 1 was 6.25 μM, 12.5 μM or 25 μM and supplied to wells (that is, wells after the pre-incubation) in which 90 μL of cells to be evaluated were cultured in each well. On the other hand, regarding the culture solution for the comparative test area, a culture solution to which no Sample 1 was added was prepared, and supplied to wells (that is, wells after the pre-incubation) in which 90 μL of cells to be evaluated were cultured in each well. The 96-well plate was then placed in a CO2 incubator, and incubated under conditions of 37° C. and 5% CO2 for 48 hours. […] Then, the absorbance at a wavelength of 450 nm (value corrected by the absorbance at a wavelength of 620 nm: A450-A620) was measured based on the reduction of the tetrazolium salt in the culture solution. Then, the cell viability was calculated according to a colorimetric method. In the test areas (test areas 1 to 3) in the peptide addition area, the cell viability of each of the above five types of cell lines was calculated as a relative value when a measured value (measurement absorbance) of the comparative test area in the same cell lines was set as 100%. That is, regarding each of the above five types of cell lines, the cell viability (%) was calculated by dividing the measurement absorbance of the test areas (test areas 1 to 3) in the peptide addition area by the measurement absorbance of the comparative test area in the same cell lines and multiplying by 100.

In the case of “MACLGFQRHKAQLNLATRTWPCTLLFFLLFIPVFCKKRTLRKTDRKKR-NH2 (cysteines drawn unpaired) [Sample 1]”, the “Specific cell viability of test tumor cells” value (FU97, 12.5 μM Sample 1, (cell viability of test tumor cells)/(cell viability of MCF-12F cells)×100) is reported as 23.0, the “Cell viability (%) of test cells” value (6.25 μM) is reported as 29.4% and the “Cell viability (%) of test cells” value (12.5 μM) is reported as 26.3%. For the same substance, the “Cell viability (%) of test cells” value (25 μM) was 30%.
